Results published in ChEMBL document CHEMBL1201862, “PubChem BioAssay data set” (2004).
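Where inhibition never reached the appropriate level, the endpoint shown equals the highest concentration tested. Otherwise, values were interpolated linearly from a five-concentration, 48-hour dose response in 96-well plates. Here, GI50 denotes the concentration required for 50% inhibition of growth.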 The source made the active and inactive calls. No stated cut-off is given here; in the data, active = GI50 up to about 1.1 µM and inactive = higher. Where a SMILES comes first, the peptide text is derived from it. [ ]: non-standard residue; d: D form. The star is where a group is joined. Hyp = O=C(O)[CH]1C[CH](O)CN1; Cbz = O=C(OCc1ccccc1)*

What was measured:
Assay in all cases: inhibition of tumour cell growth, NCI panel, 48 h
Hs-578T = test system: Hs-578T
A549 = test system: A549
UACC-62 = test system: UACC-62
CAKI-1 = test system: CAKI-1
SK-MEL-2 = test system: SK-MEL-2
UACC-257 = test system: UACC-257
RXF 393 = test system: RXF 393
SN12C = test system: SN12C
786-0 = test system: 786-0
IGROV-1 = test system: IGROV-1
T47D = test system: T47D
U-251 = test system: U-251
NCI-H226 = test system: NCI-H226
COLO 205 = test system: COLO 205
RPMI-8226 = test system: RPMI-8226
M14 = test system: M14
BT-549 = test system: BT-549
SW-620 = test system: SW-620
SNB-75 = test system: SNB-75

| SMILES | GI50 (Hs-578T) | GI50 (A549) | GI50 (UACC-62) | GI50 (CAKI-1) | GI50 (SK-MEL-2) | GI50 (UACC-257) | GI50 (RXF 393) | GI50 (SN12C) | GI50 (786-0) | GI50 (IGROV-1) | GI50 (T47D) | GI50 (U-251) | GI50 (NCI-H226) | GI50 (COLO 205) | GI50 (RPMI-8226) | GI50 (M14) | GI50 (BT-549) | GI50 (SW-620) | GI50 (SNB-75) |
| --- | --- | --- | --- | --- | --- | --- | --- | --- | --- | --- | --- | --- | --- | --- | --- | --- | --- | --- | --- |
| C1CCNCC1.O=C1NC(=S)N/C1=C/c1ccccc1O | 26.4 µM (inactive) | > 100 µM (inactive) | > 100 µM (inactive) | > 100 µM (inactive) | > 100 µM (inactive) | > 100 µM (inactive) | > 100 µM (inactive) | > 100 µM (inactive) | > 100 µM (inactive) | 99.1 µM (inactive) | 56.2 µM (inactive) | > 100 µM (inactive) | > 100 µM (inactive) | > 100 µM (inactive) | 45.2 µM (inactive) | > 100 µM (inactive) | > 100 µM (inactive) | > 100 µM (inactive) | – |
| COc1cc(O)c2c(=O)c(OC)c(-c3ccc4c(c3)OCO4)oc2c1OC | 28.1 µM (inactive) | > 50 µM (inactive) | > 50 µM (inactive) | > 50 µM (inactive) | > 50 µM (inactive) | > 50 µM (inactive) | 18.9 µM (inactive) | > 50 µM (inactive) | 38.9 µM (inactive) | > 50 µM (inactive) | > 50 µM (inactive) | 12.9 µM (inactive) | > 50 µM (inactive) | > 50 µM (inactive) | – | > 50 µM (inactive) | 13.4 µM (inactive) | > 50 µM (inactive) | 11.6 µM (inactive) |
| NC(CCCCNC(=O)OCc1ccccc1)C(=O)NC(CCCCNC(=O)OCc1ccccc1)C(=O)ON1C(=O)CCC1=O (stereo unspecified) | > 100 µM (inactive) | > 100 µM (inactive) | > 100 µM (inactive) | – | > 100 µM (inactive) | > 100 µM (inactive) | 52.7 µM (inactive) | > 100 µM (inactive) | > 100 µM (inactive) | > 100 µM (inactive) | > 100 µM (inactive) | > 100 µM (inactive) | > 100 µM (inactive) | > 100 µM (inactive) | > 100 µM (inactive) | > 100 µM (inactive) | > 100 µM (inactive) | > 100 µM (inactive) | 27.2 µM (inactive) |
| Nc1nonc1-c1noc(-c2nonc2N)[n+]1[O-] | > 100 µM (inactive) | 30.3 µM (inactive) | 66.7 µM (inactive) | 18.4 µM (inactive) | > 100 µM (inactive) | > 100 µM (inactive) | 24.9 µM (inactive) | > 100 µM (inactive) | 37.1 µM (inactive) | > 100 µM (inactive) | > 10 µM (inactive) | > 100 µM (inactive) | 49.5 µM (inactive) | > 10 µM (inactive) | 54.6 µM (inactive) | 29.6 µM (inactive) | 64.1 µM (inactive) | 27 µM (inactive) | – |
| CCCCCCCCCCCCCC/C(C(=O)O)=C(\C)C(=O)O | > 100 µM (inactive) | > 100 µM (inactive) | > 100 µM (inactive) | – | > 100 µM (inactive) | > 100 µM (inactive) | > 100 µM (inactive) | > 100 µM (inactive) | > 100 µM (inactive) | > 100 µM (inactive) | > 100 µM (inactive) | > 100 µM (inactive) | > 100 µM (inactive) | > 100 µM (inactive) | 40.4 µM (inactive) | > 100 µM (inactive) | > 100 µM (inactive) | > 100 µM (inactive) | > 100 µM (inactive) |
| COc1cccc(-c2cc(=O)c3ccc(C)nc3[nH]2)c1 | 0.0687 µM (active) | 0.0728 µM (active) | 0.0436 µM (active) | 0.0458 µM (active) | 0.0541 µM (active) | – | 0.0274 µM (active) | 0.122 µM (active) | 0.0491 µM (active) | 0.0461 µM (active) | 57.9 µM (inactive) | 0.0508 µM (active) | 0.0434 µM (active) | 0.0277 µM (active) | 0.034 µM (active) | 0.0454 µM (active) | 0.299 µM (active) | 0.0383 µM (active) | 0.0201 µM (active) |
| NC(=O)CNC(=O)C1CC(O)CN1C(=O)C1CCCN1C(=O)OCc1ccccc1 (stereo not drawn) (Cbz-Pro-[Hyp]-Gly-NH2; configuration not given here) | > 100 µM (inactive) | > 100 µM (inactive) | > 100 µM (inactive) | – | > 100 µM (inactive) | > 100 µM (inactive) | > 100 µM (inactive) | > 100 µM (inactive) | > 100 µM (inactive) | > 100 µM (inactive) | > 100 µM (inactive) | > 100 µM (inactive) | > 100 µM (inactive) | > 100 µM (inactive) | > 100 µM (inactive) | > 100 µM (inactive) | > 100 µM (inactive) | > 100 µM (inactive) | > 100 µM (inactive) |
